Legend:
Type in all cases: cell-based
IGROV1CDDP [1] = assay: MTT assay, IC50 determination of chemotherapies; conditions: for IC50: MTT assay, 72 h treatment, IGROV1CDDP (cisplatin-resistant), mean ± SEM, three to six independent biological replicates
Experimental: (§1) The ovarian cell lines IGROV1, IGROV1CDDP, and IGROV1VCR were cultivated in RPMI 1640 Medium GlutaMAX with 10% FBS and 1% of pyruvate and glutamine. They were maintained at 5% CO2 and 37°C in a humidified atmosphere. All reagents are from Gibco® (Thermo Fisher Scientific, Carlsbad, CA, United States).
(§2) PEP-010 was first dissolved in 0.1% formic acid (10 mM) and then diluted in a cell culture medium at pH9 (to allow a full dissolution of the peptide). Experiments in similar conditions, but without the peptide, were conducted as negative controls. Staurosporine (Selleckchem, Houston, TX, United States) was used as a positive control at a concentration of 1 µM. Cells were collected or analyzed at the indicated time points. For combination conditions, the cells were treated with paclitaxel (Accord, London, United Kingdom) at the indicated concentrations for 72 h.
(§3) Here, 10,000 cells were seeded on 96-well plates in 100 µL of medium. The day after, the medium was replaced with fresh medium containing the appropriate drugs at the indicated concentrations: cisplatin (Mylan, Canonsburg, PA, United States), paclitaxel (Accord, London, United Kingdom), doxorubicin (Pfizer, New York, NY, United States), vincristine [Pfizer, New York, NY, United States)], and/or PEP-010. The plates were incubated at 37° in humidified air with 5% CO2 for 72 h. The MTT reagent (20 µL) was added at the end of the indicated time points, and plates were incubated for 2 h at 37°C. In addition, 100 µL of lysis buffer was added to each well. Subsequently, the plates were incubated for 2 h at 37°C, and the absorbance was measured at 570 nm (Tecan, Männedorf, CH).

IGROV1VCR [2] = assay: MTT assay, IC50 determination of chemotherapies alone or with PEP-010; conditions: for fold change (FC) vs. IC50 IGROV1: IC50 in IGROV1VCR over IC50 in IGROV1, MTT 72 h; for IC50: 72 h treatment, IGROV1VCR (vincristine-resistant, expresses MDR pumps), drug alone, mean ± SEM, three to six independent biological replicates
Experimental: as §1, §2, §3

IGROV1 [3] = assay: MTT assay, IC50 determination of chemotherapies; conditions: Homo sapiens, IGROV-1, 72 h treatment, IGROV1 parental, three to six independent biological replicates
Experimental: as §1, §2, §3

IGROV1VCR [4] = assay: DNA damage, γH2AX immunofluorescence; conditions: 48 h post-treatment with PEP-010, IGROV1VCR; untreated control 20.7 ± 1.7; mean ± SEM, three biological replicates
Experimental: (§4) Cells were seeded on 12 mm coverslips placed in a 24-well plate (24 h, 37°C, and 5% CO2). Cells were treated with PEP-010 as previously described. At the indicated time point, cells were washed with 1X PBS and fixed in 4% paraformaldehyde (Euromedex, Souffelweyersheim, FR) in 1X PBS (10 min, RT), followed by three washes in 1X PBS. Cells were then permeabilized with 2% Triton X-100 (Euromedex, Souffelweyersheim, FR) in 1X PBS (10 min, RT) and then washed in 1X PBS. Cells were saturated with 0.5% BSA (Euromedex, Souffelweyersheim, FR) in 1X PBS (40 min, RT) and then stained with an anti-γH2AX Ser139 antibody (mouse, 1:200, from BioLegend #613402). Incubation with primary antibody (2 h, RT) was followed by three washes in 1X PBS and by incubation (1 h, RT) with a secondary antibody conjugated to Alexa Fluor […] goat anti-mouse (Thermo Fisher Scientific, Carlsbad, CA, United States), diluted 1:200. Coverslips were mounted on microscopy glass slides using a mounting medium containing DAPI (Sigma-Aldrich, Saint-Quentin-Fallavier, Cedex, France). Images were acquired using a fluorescence microscope (Zeiss Observer Z1). Images were analyzed using ImageJ software.

IGROV1CDDP [5] = assay: DNA damage, γH2AX immunofluorescence; conditions: 48 h post-treatment with PEP-010, IGROV1CDDP; untreated control 15.8 ± 2.8; mean ± SEM, three biological replicates
Experimental: as §4

[6] = tested on: ovarian adenocarcinoma cell models resistant to different chemotherapies; assay: Cell death in monotherapy (Annexin-V/Propidium Iodide staining and flow cytometry); conditions: PEP-010 monotherapy; highest value stated in abstract, dose and cell line not stated there
Experimental: as §2
(§5) Cell death was assessed using Annexin V-APC and propidium iodide (PI) (BioLegend, San Diego, CA, United States) staining following the manufacturer’s instructions. Results were analyzed as previously described ([Debernardi et al., 2018]). A total of 10,000 events were analyzed using a C6 Accuri Cytometer (Becton-Dickinson, Franklin Lakes, NJ, United States), analysis was performed using integrated software, and Annexin V positive cells (PI positive and negative) were counted as apoptotic.

IGROV1VCR [7] = assay: Apoptosis measurement, Annexin V/PI staining and FACS analysis
Experimental: as §2, §5

IGROV1CDDP [8] = assay: as above; conditions: PEP-010 12.5 µM, 24 h post-treatment, untreated control 14.6 ± 1.2, mean ± SEM, three independent biological replicates
Experimental: as §2, §5

IGROV1 [9] = assay: as above; conditions: PEP-010 12.5 µM, 24 h post-treatment, untreated control 11 ± 1.3, mean ± SEM, three independent biological replicates
Experimental: as §2, §5

| Compound | fold change (FC) vs. IC50 IGROV1 (IGROV1CDDP [1]; IC50 in IGROV1CDDP over IC50 in IGROV1, MTT 72 h) | IC50 (IGROV1CDDP [1]) [nM] | fold change (FC) vs. IC50 IGROV1 (IGROV1VCR [2]) | IC50 (IGROV1VCR [2]; MTT assay) [nM] | IC50 (IGROV1 [3]) [nM] | % of γH2AX positive cells (IGROV1VCR [4]) [%] | % of γH2AX positive cells (IGROV1CDDP [5]) [%] | cell death in monotherapy, % of cells [6] | FC, reduction of the IC50 of paclitaxel (PTX alone vs. PTX + PEP-010) (IGROV1VCR [2]; MTT assay, 72 h, IGROV1VCR, PEP-010 25 µM) | total % of Annexin V positive cells (IGROV1VCR [7]; PEP-010 12.5 µM, 24 h post-treatment, IGROV1VCR, untreated control 12.6 ± 0.9, mean ± SEM, three independent biological replicates) [%] | apoptosis, % of cells, combination with paclitaxel (IGROV1VCR [7]; PEP-010 in combination with paclitaxel, stated in abstract, doses not given) [%] | total % of Annexin V positive cells (IGROV1CDDP [8]) [%] | total % of Annexin V positive cells (IGROV1 [9]) [%] |
| --- | --- | --- | --- | --- | --- | --- | --- | --- | --- | --- | --- | --- | --- |
| N.N.[Cl][Pt][Cl] [Cisplatin, cisplatin] | 11.1 | 25700 | 6.5 | 15000 |  |  |  |  |  |  |  |  |  |
| COc1cccc2c1C(=O)c1c(O)c3c(c(O)c1C2=O)C[C@@](O)(C(=O)CO)C[C@@H]3O[C@H]1C[C@H](N)[C@H](O)[C@H](C)O1 [Doxorubicin, doxorubicin] |  | 500 |  | > 10000 | 400 |  |  |  |  |  |  |  |  |
| CC(=O)O[C@H]1C(=O)[C@@]2(C)[C@H]([C@H](OC(=O)c3ccccc3)[C@]3(O)C[C@H](OC(=O)[C@H](O)[C@@H](NC(=O)c4ccccc4)c4ccccc4)C(C)=C1C3(C)C)[C@]1(OC(C)=O)CO[C@@H]1C[C@@H]2O [Paclitaxel, paclitaxel] |  | 500 | 3.9 | 2900 | 750 |  |  |  |  |  |  |  |  |
| CC[C@]1(O)C[C@H]2CN(CCc3c([nH]c4ccccc34)[C@@](C(=O)OC)(c3cc4c(cc3OC)N(C=O)[C@H]3[C@@](O)(C(=O)OC)[C@H](OC(C)=O)[C@]5(CC)C=CCN6CC[C@]43[C@@H]65)C2)C1 [Vincristine, vincristine] |  | 900 | 97 | 3300 | 34 |  |  |  |  |  |  |  |  |
| VKKKKIKAEIKIYVETLDDIFEQWAHSEDL [PEP-010] |  |  |  |  |  | 29.5 ± 2.6 | 26.5 ± 3.1 | up to 55% | 2.2 | 37 ± 4 | 87 | 38.7 ± 8.5 | 37.4 ± 1.9 |
